In the METLIN SMRT retention time set (Domingo-Almenara et al. 2019):

Assay: gradient 5% acetonitrile 3 min, to 50% in 2 min, to 85% in 15 min, held 3 min, 100 µL/min
Conditions: column: Zorbax Extend-C18 2.1 x 50 mm; eluents: water / acetonitrile, 0.1% formic acid
How it was run: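 Over 3 months, pure standards in mixtures of ~100 molecules were run by HPLC coupled to a quadrupole time-of-flight mass spectrometer in positive and negative ionization mode. The column was a Zorbax Extend-C18 (2.1 × 50 mm, 1.8 μm) at 100 μL/min, eluted with water and acetonitrile each holding 0.1% formic acid, with 40 μL dead and 900 μL dwell volumes. Retention time was determined from adduct peaks chosen by software and checked manually.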

| RP-LC retention time [s] | Structure (SMILES) |
| --- | --- |
| 699 | CC(=O)N1CCCN(C2=NS(=O)(=O)C(c3ccc(C)cc3)=C2C)CC1 |
| 901 | Cc1cccc(NC(=O)N2CCc3nc(-c4ccccc4)ncc3C2)c1C |
| 941 | Cc1ccc(-c2ncc(NC(=O)C3CCC3)cn2)cc1 |
| 765 | CCC(C)NC(=O)Cn1nc(C)c2sc(-c3ccccc3)nc2c1=O (stereo not given) |
| 1120 | O=C(Nc1cccn2nc(C3CCC3)nc12)c1ccc(C(F)(F)F)s1 |
| 599 | CCN(CC)CCNC(=O)Cn1c2ccccc2c2cnn(C)c(=O)c21 |
| 747 | CCOC(=O)C1=C(C)N(CC(=O)NCC2CCCO2)c2ncnn2C1c1ccccc1 (stereo not given) |
| 747 | Cc1cc2c(cc1S(=O)(=O)N1CCCC1C(=O)N1CCN(c3ccccc3)CC1)OCC(=O)N2 (stereo not given) |
| 733 | Cc1ccc(CNC(=O)C2CCN(Cc3cn(C)c4ccc(Cl)cc34)CC2)cc1 |
| 908 | O=C1c2cccc3cccc(c23)C(=O)N1CCCC(=O)N1CCc2ccccc21 |
| 624 | CCCc1nc2ccc(CCC(=O)NCc3ccc(F)cc3)cc2[nH]1 |
| 1110 | O=c1c2cc(-c3ccccc3Cl)nn2cnn1Cc1nc(-c2ccccc2)no1 |
| 1230 | CCOc1ccccc1-c1noc(Cn2cnc3c(cnn3-c3ccc(C)c(Cl)c3)c2=O)n1 |
| 877 | CC1(C)CC(=O)C2=C(C1)N=C1SCCC(=O)N1C2c1ccc(Cl)cc1 (stereo not given) |
| 724 | O=C(C1CCN(c2cc(N3CCCCC3)ncn2)CC1)N1CCN(c2ccccc2)CC1 |
| 631 | Cc1c(C(=O)NCCCN2CCCCC2)oc2ccc3c(c12)C(O)CC(C)(C)O3 (stereo not given) |
| 896 | CCn1nc(-c2csc(S(=O)(=O)N3CCCCC3C)c2)ccc1=O (stereo not given) |
| 840 | CN1c2cc(C(=O)N3CCN(c4ccc(F)cc4)CC3)ccc2C(=O)N2CCCCC21 (stereo not given) |
| 1170 | CCOC(=O)c1c(NC(=O)c2ccc(S(=O)(=O)N(C)C)cc2)sc(C)c1C |
| 1020 | COc1ccccc1CCC(=O)N1CCCn2nc(-c3ccc(C)cc3)cc2C1 |
| 934 | Cc1cc(Cl)ccc1NC(=O)CN(C)S(=O)(=O)c1cc(C(=O)N2CCC(C)CC2)n(C)c1 |
| 634 | CCOc1ccc(CN2C[C@@H]3C(=O)N(CCc4ccccc4)C(=O)[C@@H]3C2)cc1OC |

| RP-LC retention time [s] | Structure (SMILES) |
| --- | --- |
| 714 | O=C(CSc1cc(-n2ccc(C(=O)NC3CC3)n2)ncn1)Nc1ccc2c(c1)OCO2 |
| 636 | COc1cccc(NC(=O)Nc2ccc(CC(N)=O)cc2)c1OC |
| 759 | Cc1cc(C)c(C(=O)N2CCC(CC(=O)NCc3ccc(F)cc3)CC2)[nH]1 |
| 735 | O=C(NC1CCCC1)c1cccnc1N1CCSCC1 |
| 1230 | Cc1ccc(S(=O)(=O)N2CCCC2c2nc(-c3ccc(F)cc3)no2)cc1Cl (stereo not given) |
| 566 | Cc1cc(C)c(C(=O)N2CCC(CC(=O)NCCCN3CCN(C)CC3)CC2)[nH]1 |
| 738 | Cc1ccc(NC(=O)N2CCC(OC3CCN(S(C)(=O)=O)CC3)CC2)cc1 |
| 856 | OC(COc1cccc2ccccc12)CN1CCN(c2ccc(Cl)cc2)CC1 (stereo not given) |
| 944 | O=C(c1cn(-c2cc(N3CCCCC3)ncn2)cn1)N1CCN(c2ccccc2)CC1 |
| 788 | Cc1ccc(N2CCC(NC(=O)NC3CCCC3)C2=O)cc1C (stereo not given) |
| 600 | CC(C)CN1CCn2cc(C(=O)NC3CCCCC3)nc2C1 |
| 822 | Cc1ccc(-n2c(=O)c3c(cc(C)n3C)n(CC(=O)Nc3cccc(C#N)c3)c2=O)cc1 |
| 944 | CCc1noc(-c2ccc(-n3cnc(C(=O)N(C)C4CCCCC4)c3)nc2)n1 |
| 1030 | O=c1ccc(-c2ccccc2)nn1CCc1nc(-c2cccc(Cl)c2)no1 |
| 559 | COCCNC(=O)N1CCN(Cc2nc3cc(C(=O)N(C)C)ccc3o2)CC1 |
| 864 | Cn1c(=O)c(N2CCN(C(=O)c3ccccc3F)CC2)nc2ccccc21 |
| 806 | CC(C)NC(=O)C1CCCN(c2nccn3nc(-c4ccccc4Cl)cc23)C1 (stereo not given) |
| 748 | Cc1ccc(CNC(=O)CN2CCN(C(=O)Nc3ccc(Br)cc3)CC2=O)o1 |
| 588 | CCOC(=O)CNC(=O)N1CCN(CCn2c(C(F)(F)F)nc3cccnc32)CC1 |
| 1040 | Cc1ccc(-c2nc3n(CC(=O)N4CCCCC4C)c4c(c(=O)n3n2)CCC4)cc1 (stereo not given) |
| 862 | C[C@H]1CN(C(=O)c2nn(C)c3ccccc23)C[C@@H]1c1nc(-c2cccnc2)no1 |
| 722 | Cc1ccc(C2NC(=O)N(CC(=O)Nc3cc(C)on3)C3=C2C(=O)OC3)cc1 (stereo not given) |

| RP-LC retention time [s] | Structure (SMILES) |
| --- | --- |
| 946 | C[C@@]1(C(=O)Nc2ccc(F)nc2)CCCN1c1nc(Nc2cc(C3CC3)[nH]n2)c2cccn2n1 |
| 1050 | CCOc1ccccc1C(=O)NC1(c2nc(-c3cccnc3)no2)CCCCC1 |
| 788 | COc1ccc(-c2nc(C)cc3nn(CC(=O)NCc4ccccc4)c(=O)n23)cc1 |
| 1020 | COc1ccc(S(=O)(=O)Cc2nc(-c3cccc(Cl)c3)no2)cc1 |
| 889 | CCCOC(=O)c1cccc(Nc2nc(-c3cccnc3)nc3ccccc23)c1 |
| 1210 | COc1ccccc1-c1csc(-c2nnn(-c3cccc(Cl)c3)c2N)n1 |
| 761 | CCN1C(=O)c2cccnc2Sc2cc(CNC(=O)Cc3cccc(F)c3)ccc21 |
| 687 | COc1cccc(OCC(O)CN2CCN(c3ccc(F)cc3)CC2)c1 (stereo not given) |
| 1080 | CCn1cc(-c2nc(C(=O)Nc3ccc(C(=O)OC)cc3)cs2)c2cccnc21 |
| 866 | Cc1nc(-c2noc(-c3ccccc3)n2)cn1CC(=O)NCc1ccc(Cl)cc1 |
| 949 | O=C(NCCc1cccs1)C1CCCN(c2nc3ccsc3c(=O)n2Cc2ccccc2)C1 (stereo not given) |
| 799 | CC(C)NC(=O)c1ccc(OCC2CCCN2C(=O)c2ccc(N(C)C)cc2)cc1 (stereo not given) |
| 638 | Cc1nnc(C2CC3(CCN(Cc4ccccc4)CC3)CN2CCc2ccccc2)o1 (stereo not given) |
| 815 | COc1ccc(C2=C(C)C(N3CCC(C(=O)N(C)Cc4ccco4)CC3)=NS2(=O)=O)cc1 |
| 1200 | Cc1ccc(C(=O)N2CCCC2c2nc(-c3cccc(Cl)c3)no2)c(C)c1 (stereo not given) |
| 734 | CCC(C)C(NC(=O)CCc1ccc(OC)cc1)C(=O)Nc1nc2ccccc2[nH]1 (stereo not given) |
| 1020 | COc1ccccc1N1CCN(S(=O)(=O)c2cc(-c3nnc(C4CCC4)o3)co2)CC1 |
| 712 | O=C(NC1(c2nc(-c3cnccn3)no2)CCCCC1)c1ccco1 |
| 612 | COc1ccc(NC(=O)Nc2c(-c3ccccc3)nc3ccccn23)cc1OC |
| 584 | Cc1cc(N2CCN(c3ccccn3)CC2)n2nc(-c3ccco3)nc2n1 |
| 590 | COc1ccc(NC(=O)Nc2cc(-c3cn4cccnc4n3)ccc2C)cc1 |
